Patent US20100292222A1, “CHEMICAL COMPOUNDS 751” (ASTRAZENECA AB, priority 2009, published 2010)

Target: T1, Androgen Receptor (AR) (Homo sapiens, UniProt P10275, T878A)
T1 construct: cell based immuno-fluorescence assay using the LNCaP prostate epithelial cell line; host or cells: LNCaP clone FGC prostate carcinoma cells
T1 sequence (P10275 1-920 T878A): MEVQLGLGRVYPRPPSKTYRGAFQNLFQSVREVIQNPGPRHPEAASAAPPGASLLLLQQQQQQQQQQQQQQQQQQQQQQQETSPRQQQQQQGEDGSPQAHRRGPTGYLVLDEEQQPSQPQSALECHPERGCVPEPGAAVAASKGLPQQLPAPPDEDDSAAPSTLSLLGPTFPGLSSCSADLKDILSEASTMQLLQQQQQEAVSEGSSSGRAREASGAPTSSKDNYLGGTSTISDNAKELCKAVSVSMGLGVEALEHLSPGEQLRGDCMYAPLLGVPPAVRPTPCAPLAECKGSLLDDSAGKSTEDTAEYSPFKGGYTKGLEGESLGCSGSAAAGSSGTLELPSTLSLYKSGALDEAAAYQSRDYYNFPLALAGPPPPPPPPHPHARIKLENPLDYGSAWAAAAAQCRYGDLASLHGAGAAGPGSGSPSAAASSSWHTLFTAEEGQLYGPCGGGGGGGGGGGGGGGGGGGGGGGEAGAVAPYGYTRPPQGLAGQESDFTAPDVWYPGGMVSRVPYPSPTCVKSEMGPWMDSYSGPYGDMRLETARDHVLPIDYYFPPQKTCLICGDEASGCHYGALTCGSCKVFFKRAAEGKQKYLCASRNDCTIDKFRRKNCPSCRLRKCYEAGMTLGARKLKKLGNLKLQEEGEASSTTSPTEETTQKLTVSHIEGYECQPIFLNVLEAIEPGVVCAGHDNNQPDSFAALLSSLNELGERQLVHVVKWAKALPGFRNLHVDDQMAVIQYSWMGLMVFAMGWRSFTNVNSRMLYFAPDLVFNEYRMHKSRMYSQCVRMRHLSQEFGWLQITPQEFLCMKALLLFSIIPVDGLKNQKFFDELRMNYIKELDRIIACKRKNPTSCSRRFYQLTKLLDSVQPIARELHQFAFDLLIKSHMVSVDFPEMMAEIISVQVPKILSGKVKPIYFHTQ
Assay: LNCaP Androgen Receptor Down-Regulation Cell Assay
Format: cell-based
Settings: LNCaP prostate carcinoma cell line; 20-22 hours incubation; immunofluorescence; 50% reduction of the AR signal
Protocol: The ability of compounds to reduce Androgen Receptor (AR) numbers was assessed in a cell based immuno-fluorescence assay using the LNCaP prostate epithelial cell line.
This immunofluorescence end point assay measures the ability of a test compound to down-regulate and reduce measured levels of the AR in the LNCaP prostate carcinoma cell line (LNCaP clone FGC (CRL-1740) obtained from the American Type Culture Collection (ATCC)).
LNCaP cells were cultured in Growth Medium (phenol red free Roswell Park Memorial Institute (RPMI) 1640 (Invitrogen Code no. 11835-063) containing 2 mM L-Glutamine (Invitrogen Code no. 25030-024) and 1% (v/v) Penicillin/Streptomycin (10000 units/ml Penicillin and 10000 μg/ml of Streptomycin utilising penicillin G (sodium salt) and streptomycin sulphate: prepared in normal saline, Invitrogen Code no. 15140122) and 10% (v/v) foetal bovine serum (FBS)) in a 5% CO2 air incubator at 37° C. Cells for assay were harvested from T175 stock flasks by washing once in PBS (phosphate buffered saline, pH 7.4) (Invitrogen Code no. 14190-094) and harvested using 5 mls of 1× Trypsin/ethylaminediaminetetraacetic acid (EDTA) (10× Trypsin-EDTA, 5.0 g/L Trypsin, 2.0 g/L of EDTA•4Na and 8.5 g/L of NaCl, without Phenol Red, Invitrogen Code no. 15400-054) diluted in PBS solution. A 5 ml volume of Growth Medium was added to each flask (as above except that 5% (v/v) charcoal stripped FBS (HyClone Code no. SH30068.03) was included instead of 10% (v/v) FBS). Cells were syringed at least twice using a sterile 18G×1.5″ (1.2×40 mm) broad gauge needle and cell density was measured using a haemocytometer. Cells were further diluted in Growth Medium plus 5% (v/v) charcoal stripped FBS and seeded at a density of 6.5×10^3 cells per well (in 90 ul) into transparent, black, tissue culture treated 96 well plates (Packard, No. 6005182).
Test data reported herein was generated using two different compounds preparation and dosing methods. In method (1) a 10 mM compound stock solution in 100% (v/v) DMSO was serially diluted in 4-fold steps in 100% (v/v) DMSO using a Thermo Scientific Matrix SerialMate. The diluted compounds were then further diluted 1 in 30 in assay media using a Thermo Scientific Matrix PlateMate and a 10 μl aliquot of this dilution was dosed to cells manually using a multi-channel pipette. In method (2) starting with a 10 mM compound stock solution, the Labcyte Echo 550 was used to generate a compound concentration response set diluted in 30 μl of assay media. The Echo 550 is a liquid handler that uses acoustic technology to perform direct microplate-to-microplate transfers of DMSO compound solutions. The system can be programmed to transfer volumes as low as […] in multiple increments between microplates and in so doing generates a serial dilution of compound which is then back-filled to normalise the DMSO is concentration across the dilution range. A 10 μl volume of diluted compound is then dosed to cells using a Thermo Scientific Matrix PlateMate.
Plates were incubated overnight at 37° C., 5% CO2. Wells were then dosed with compound prepared by one of the 2 methods above and further incubated for 20-22 hours at 37° C., 5% CO2. Plates were fixed by the addition of 20 μl of 10% (v/v) formaldehyde solution (in PBS) to each well (final formaldehyde conc.=1.67% (v/v)) and left at room temperature for 10 mins. This fixative solution was removed and cells were washed with 250 μl of PBS/0.05% (v/v) Tween 20 (PBST) using an automated plate washer. This process was then repeated twice more.
Immunostaining was performed at room temperature. Cells were permeabilised by the addition of 35 μl of PBS containing 0.5% Tween 20 and incubated for 1 hour at room temperature. Permeabilisation solution was removed and cells were washed with 250 μl of PBST using an automated plate washer. This process was then repeated twice more. […]

SMILES	IC50 [µM]
CN1CCN(CCOc2ccc(C3CCN(c4ccc5nnc(C(F)(F)F)n5n4)CC3)cc2)CCC1=O [Example 32, 4-methyl-1-[2-(4-{1-[3-(trifluoromethyl)[1,2,4]-triazolo[4,3-b]pyridazin-6-yl]piperidin-4-yl}phenoxy)ethyl]-1,4-diazepan-5-one]	0.056
CC(=O)N1CCN(CCOc2ccc(C3CCN(c4ccc5nnc(C(F)(F)F)n5n4)CC3)cc2)C[C@@H]1C [Example 33, 6-[4-(4-{2-[(3S)-4-acetyl-3-methylpiperazin-1-yl]ethoxy}phenyl)piperidin-1-yl]-3-(trifluoromethyl)[1,2,4]triazolo[4,3-b]pyridazine]	0.079
CC(=O)N1CCN(CCOc2ccc(C3CCN(c4ccc5nnc(C(F)(F)F)n5n4)CC3)cc2)C[C@H]1C [Example 34, 6-[4-(4-{2-[(3R)-4-acetyl-3-methylpiperazin-1-yl]ethoxy}phenyl)piperidin-1-yl]-3-(trifluoromethyl)[1,2,4]triazolo[4,3-b]pyridazine]	0.067
CC(=O)N1CCN(CCOc2ccc(C3(O)CCN(c4ccc5nnc(C(F)(F)F)n5n4)CC3)c(F)c2)CC1 [Example 35, 4-{4-[2-(4-acetylpiperazin-1-yl)ethoxy]-2-fluorophenyl}-1-[3-(trifluoromethyl)[1,2,4]-triazolo[4,3-b]pyridazin-6-yl]piperidin-4-ol]	0.14
CN1CCN(CCOc2ccc(C3(O)CCN(c4ccc5nnc(C(F)(F)F)n5n4)CC3)c(F)c2)CC1=O [Example 36, 4-[2-(3-fluoro-4-[4-hydroxy-1-[3-(trifluoromethyl)[1,2,4]triazolo[4,3-b]pyridazin-6-yl]piperidin-4-yl]phenoxy)ethyl]-1-methylpiperazin-2-one]	0.073
CCN1CCN(CCOc2ccc(C3(O)CCN(c4ccc5nnc(C(F)(F)F)n5n4)CC3)cc2)CC1=O [Example 37, 1-ethyl-4-[2-(4-{4-hydroxy-1-[3-(trifluoromethyl)[1,2,4]triazolo[4,3-b]pyridazin-6-yl]piperidin-4-yl}phenoxy)ethyl]piperazin-2-one]	0.39
O=C1CN(CCOc2ccc(C3(O)CCN(c4ccc5nnc(C(F)(F)F)n5n4)CC3)cc2)CCN1C1CC1 [Example 38, 1-cyclopropyl-4-[2-(4-{4-hydroxy-1-[3-(trifluoromethyl)[1,2,4]triazolo[4,3-b]pyridazin-6-yl]piperidin-4-yl}phenoxy)ethyl]piperazin-2-one]	0.49
CC(=O)N1CCN(CCOc2ccc(C3(O)CCN(c4ccc5nnc(C(F)(F)F)n5n4)CC3)cc2)C[C@H]1C [Example 39, 4-(4-{2-[(3R)-4-acetyl-3-methylpiperazin-1-yl]ethoxy}phenyl)-1-[3-(trifluoromethyl) [1,2,4]triazolo[4,3-b]pyridazin-6-yl]piperidin-4-ol]	0.071
CC(=O)N1CCN(CCOc2ccc(C3(O)CCN(c4ccc5nnc(C(F)(F)F)n5n4)CC3)cc2)C[C@@H]1C [Example 40, 4-(4-{2-[(3S)-4-acetyl-3-methylpiperazin-1-yl]ethoxy}phenyl)-1-[3-(trifluoromethyl) [1,2,4]triazolo[4,3-b]pyridazin-6-yl]piperidin-4-ol]	0.063
CC(=O)N1CCCN(CCOc2ccc(C3(O)CCN(c4ccc5nnc(C(F)(F)F)n5n4)CC3)c(F)c2)CC1 [Example 41, 4-{4-[2-(4-acetyl-1,4-diazepan-1-yl)ethoxy]-2-fluorophenyl}-1-[3-(trifluoromethyl)[1,2,4]triazolo[4,3-b]pyridazin-6-yl]piperidin-4-ol]	0.036
CN1CCN(CCCOc2ccc(C3(O)CCN(c4ccc5nnc(C(F)(F)F)n5n4)CC3)c(F)c2)CC1=O [Example 42, 4-[3-(3-fluoro-4-{4-hydroxy-1-[3-(trifluoromethyl)[1,2,4]triazolo[4,3-b]pyridazin-6-yl]piperidin-4-yl}phenoxy)propyl]-1-methylpiperazin-2-one]	0.17
